From patent US11484539B2, “Compounds and their uses for alleviating menopause-associated symptoms” (Estetra SPRL, priority 2018, dated 2022)

System: post-menopausal women
Experiment: Hot Flush Weekly Weighted Score, dose-finding study
Type: in vivo
Description: Further, the terms “Hot Flush Weekly Weighted Score”, as used herein, corresponds to a score taking into account frequency and severity which is calculated by using the severity score (as calculated above): [(1× No. of mild VMS)+(2× No. of moderate VMS)+(3× No. of severe VMS)] during a 7 day period.
Such a weighted score was for example used by Notelovitz et al. (“Initial 17β-Estradiol Dose for Treating Vasomotor Symptoms”; Obstetrics and Gynaecology, Vol. 95(5), May 2000, p. 726-731). This score was used to generate the data included in Example 1 further below, under section A. c) “Hot Flush Weekly Weighted Score”.

## C[C@]12CC[C@@H]3c4ccc(O)cc4CC[C@H]3[C@@H]1[C@@H](O)[C@@H](O)[C@@H]2O [E4, 1,3,5 (10)-estratrien-3,15alpha,16alpha,17beta-tetrol]
2.5 mg E4, week 4
  LS adjusted mean change from baseline in Hot Flush Weekly Weighted Score: −75.37
2.5 mg E4, week 12
  LS adjusted mean change from baseline in Hot Flush Weekly Weighted Score: −89.86
2.5 mg E4 QD per os, week 0
  Mean change from baseline in Hot Flush Weekly Weighted Score: 2.4151
2.5 mg E4 QD per os, week 1
  Mean change from baseline in Hot Flush Weekly Weighted Score: −40.805
  Relative change (% from baseline) in Hot Flush Weekly Weighted Score, mean: −22%
2.5 mg E4 QD per os, week 2
  Mean change from baseline in Hot Flush Weekly Weighted Score: −58.6163
  Relative change (% from baseline) in Hot Flush Weekly Weighted Score, mean: −32%
2.5 mg E4 QD per os, week 3
  Mean change from baseline in Hot Flush Weekly Weighted Score: −74.8798
  Relative change (% from baseline) in Hot Flush Weekly Weighted Score, mean: −43%
2.5 mg E4 QD per os, week 4
  Mean change from baseline in Hot Flush Weekly Weighted Score: −82.75
  Relative change (% from baseline) in Hot Flush Weekly Weighted Score, mean: −47%
2.5 mg E4 QD per os, week 5
  Mean change from baseline in Hot Flush Weekly Weighted Score: −84.6062
  Relative change (% from baseline) in Hot Flush Weekly Weighted Score, mean: −48%
2.5 mg E4 QD per os, week 6
  Mean change from baseline in Hot Flush Weekly Weighted Score: −89.9842
  Relative change (% from baseline) in Hot Flush Weekly Weighted Score, mean: −51%
2.5 mg E4 QD per os, week 7
  Mean change from baseline in Hot Flush Weekly Weighted Score: −94.2468
  Relative change (% from baseline) in Hot Flush Weekly Weighted Score, mean: −53%
2.5 mg E4 QD per os, week 8
  Mean change from baseline in Hot Flush Weekly Weighted Score: −97.1084
  Relative change (% from baseline) in Hot Flush Weekly Weighted Score, mean: −55%
2.5 mg E4 QD per os, week 9
  Mean change from baseline in Hot Flush Weekly Weighted Score: −101.429
  Relative change (% from baseline) in Hot Flush Weekly Weighted Score, mean: −57%
2.5 mg E4 QD per os, week 10
  Mean change from baseline in Hot Flush Weekly Weighted Score: −100.18
  Relative change (% from baseline) in Hot Flush Weekly Weighted Score, mean: −57%
2.5 mg E4 QD per os, week 11
  Mean change from baseline in Hot Flush Weekly Weighted Score: −97.6016
  Relative change (% from baseline) in Hot Flush Weekly Weighted Score, mean: −56%
2.5 mg E4 QD per os, week 12
  Mean change from baseline in Hot Flush Weekly Weighted Score: −98.5424
  Relative change (% from baseline) in Hot Flush Weekly Weighted Score, mean: −57%
2.5 mg E4 vs placebo, week 4
  Difference with placebo, LS adjusted mean, absolute change in Hot Flush Weekly Weighted Score: 2.897
2.5 mg E4 vs placebo, week 12
  Difference with placebo, LS adjusted mean, absolute change in Hot Flush Weekly Weighted Score: 14.83
2.5 mg vs 0 mg, week 4
  Differences with placebo, relative change in weekly weighted score, p_value: 1.0000
2.5 mg vs 0 mg, week 12
  Differences with placebo, relative change in weekly weighted score, p_value: 0.6744
2.5 mg, Week 12
  Relative change (% from baseline) in weekly weighted score, LS adjusted mean: −0.5795
2.5 mg, week 4
  Relative change (% from baseline) in weekly weighted score, LS adjusted mean: −0.474
5 mg E4, week 4
  LS adjusted mean change from baseline in Hot Flush Weekly Weighted Score: −66.88
5 mg E4, week 12
  LS adjusted mean change from baseline in Hot Flush Weekly Weighted Score: −95.92
5 mg E4 QD per os, week 0
  Mean change from baseline in Hot Flush Weekly Weighted Score: 1.8297
5 mg E4 QD per os, week 1
  Mean change from baseline in Hot Flush Weekly Weighted Score: −33.7092
  Relative change (% from baseline) in Hot Flush Weekly Weighted Score, mean: −22%
5 mg E4 QD per os, week 2
  Mean change from baseline in Hot Flush Weekly Weighted Score: −49.1319
  Relative change (% from baseline) in Hot Flush Weekly Weighted Score, mean: −32%
5 mg E4 QD per os, week 3
  Mean change from baseline in Hot Flush Weekly Weighted Score: −56.9697
  Relative change (% from baseline) in Hot Flush Weekly Weighted Score, mean: −37%
5 mg E4 QD per os, week 4
  Mean change from baseline in Hot Flush Weekly Weighted Score: −64.8344
  Relative change (% from baseline) in Hot Flush Weekly Weighted Score, mean: −43%
5 mg E4 QD per os, week 5
  Mean change from baseline in Hot Flush Weekly Weighted Score: −71.6181
  Relative change (% from baseline) in Hot Flush Weekly Weighted Score, mean: −46%
5 mg E4 QD per os, week 6
  Mean change from baseline in Hot Flush Weekly Weighted Score: −88.2337
  Relative change (% from baseline) in Hot Flush Weekly Weighted Score, mean: −56%
5 mg E4 QD per os, week 7
  Mean change from baseline in Hot Flush Weekly Weighted Score: −88.2989
  Relative change (% from baseline) in Hot Flush Weekly Weighted Score, mean: −56%
5 mg E4 QD per os, week 8
  Mean change from baseline in Hot Flush Weekly Weighted Score: −89.2039
  Relative change (% from baseline) in Hot Flush Weekly Weighted Score, mean: −56%
5 mg E4 QD per os, week 9
  Mean change from baseline in Hot Flush Weekly Weighted Score: −90.923
  Relative change (% from baseline) in Hot Flush Weekly Weighted Score, mean: −58%
5 mg E4 QD per os, week 10
  Mean change from baseline in Hot Flush Weekly Weighted Score: −91.4798
  Relative change (% from baseline) in Hot Flush Weekly Weighted Score, mean: −59%
5 mg E4 QD per os, week 11
  Mean change from baseline in Hot Flush Weekly Weighted Score: −95.8365
  Relative change (% from baseline) in Hot Flush Weekly Weighted Score, mean: −61%
5 mg E4 QD per os, week 12
  Mean change from baseline in Hot Flush Weekly Weighted Score: −93.5117
  Relative change (% from baseline) in Hot Flush Weekly Weighted Score, mean: −60%
5 mg E4 vs placebo, week 4
  Difference with placebo, LS adjusted mean, absolute change in Hot Flush Weekly Weighted Score: 11.39
5 mg E4 vs placebo, week 12
  Difference with placebo, LS adjusted mean, absolute change in Hot Flush Weekly Weighted Score: 8.767
5.0 mg vs 0 mg, week 4
  Differences with placebo, relative change in weekly weighted score, p_value: 0.8833
5.0 mg vs 0 mg, week 12
  Differences with placebo, relative change in weekly weighted score, p_value: 0.8871
5 mg, Week 12
  Relative change (% from baseline) in weekly weighted score, LS adjusted mean: −0.5993
5 mg, week 4
  Relative change (% from baseline) in weekly weighted score, LS adjusted mean: −0.4262
10 mg E4, week 4
  LS adjusted mean change from baseline in Hot Flush Weekly Weighted Score: −85.56
10 mg E4, week 12
  LS adjusted mean change from baseline in Hot Flush Weekly Weighted Score: −109.8
10 mg E4 QD per os, week 0
  Mean change from baseline in Hot Flush Weekly Weighted Score: 2.3773
10 mg E4 QD per os, week 1
  Mean change from baseline in Hot Flush Weekly Weighted Score: −31.4591
  Relative change (% from baseline) in Hot Flush Weekly Weighted Score, mean: −20%
10 mg E4 QD per os, week 2
  Mean change from baseline in Hot Flush Weekly Weighted Score: −54.0849
  Relative change (% from baseline) in Hot Flush Weekly Weighted Score, mean: −35%
10 mg E4 QD per os, week 3
  Mean change from baseline in Hot Flush Weekly Weighted Score: −73.5189
  Relative change (% from baseline) in Hot Flush Weekly Weighted Score, mean: −47%
10 mg E4 QD per os, week 4
  Mean change from baseline in Hot Flush Weekly Weighted Score: −87.2673
  Relative change (% from baseline) in Hot Flush Weekly Weighted Score, mean: −54%
10 mg E4 QD per os, week 5
  Mean change from baseline in Hot Flush Weekly Weighted Score: −93.4648
  Relative change (% from baseline) in Hot Flush Weekly Weighted Score, mean: −58%
10 mg E4 QD per os, week 6
  Mean change from baseline in Hot Flush Weekly Weighted Score: −101.646
  Relative change (% from baseline) in Hot Flush Weekly Weighted Score, mean: −64%
10 mg E4 QD per os, week 7
  Mean change from baseline in Hot Flush Weekly Weighted Score: −103.024
  Relative change (% from baseline) in Hot Flush Weekly Weighted Score, mean: −64%
10 mg E4 QD per os, week 8
  Mean change from baseline in Hot Flush Weekly Weighted Score: −104.835
  Relative change (% from baseline) in Hot Flush Weekly Weighted Score, mean: −66%
10 mg E4 QD per os, week 9
  Mean change from baseline in Hot Flush Weekly Weighted Score: −107.578
